The target of assay [1] is acyl-CoA:cholesterol acyltransferase (ACAT). As to the kind of experiment: Inhibition of Acyl CoA:Cholesterol Acyltransferase (ACAT) in Hepatic Microsomes. The class given is biochemical, rat (male Sprague Dawley). The following applies: rat hepatic microsomes, 75 μM 14C-oleoyl-CoA, pH 7.4, 37° C., 15 min preincubation, 10 min assay; read-out: IC50 In Vitro ACAT. The method, then:
The ability of the compounds of this invention to inhibit ACAT, the enzyme responsible for the intracellular synthesis of cholesteryl esters, was tested as follows. Male Sprague Dawley rats weighing 150-300 g were fed rat chow ad libitum. The animals were fasted for twenty-four hours prior to being sacrificed by decapitation. The livers were perfused in situ with 50 ml of cold 0.25 M sucrose, excised, and homogenized in three volumes of 0.1 M phosphate buffer, pH 7.4 containing 0.5 mM EDTA (ethylenediaminetetraacetic acid), 1.0 mM glutathione, 0.25 M sucrose and 20 μM leupeptin. Microsomes were obtained by differential centrifugation; the supernatant from an initial spin at 15,000×g. for 15 minutes (which removed cell debris and mitochondria) was centrifuged at 105,000×g. for 1 hr to pellet the microsomes. The microsomes were suspended in homogenization buffer reisolated by centrifugation and stored at -70° C. Microsomes were used within one month of preparation.
The control assay in a final volume of 200 μl consisted of 200 μg of microsomal protein, 75 μM ^14 C-oleoyl-CoA (10,000 dpm/nmol) in 0.1 M phosphate, pH 7.4 containing 1 mM glutathione. Compounds were added in 5-10 μl of DMSO (dimethyl sulfoxide) and additional controls were run with DMSO only. All components, except the radiolabeled oleoyl-CoA, were preincubated for 15 min at 37° C. prior to the initiation of the reaction by addition of radiolabeled oleoyl-CoA. The assay was terminated after 10 min by the addition of 500 μl of hexane: isopropanol (3:2, v/v). 20,000 dpm of ^3 H-cholesteryl oleate and 10 μg of unlabeled cholesteryl oleate and oleic acid were added as an internal standard and carriers, respectively. After allowing 10 min for lipid extraction, the samples were centrifuged at 1,000×g for 10 mins to separate the solvent layers. 200 μl of the top (hexane) layer containing the neutral lipids was spotted onto a Baker SI250-Pa silica gel TLC plate and the plate developed using a hexane: diethyl ether: acetic acid (170:30:1 v/v/v) mobile phase. The lipids were visualized by their interaction with iodine vapor and the cholesteryl ester spot was scraped into a scintillation vial and the radioactivity on the gel was determined by standard liquid scintillation spectrometry. The specific activity of ACAT in control microsomes averaged 260 pmol/min/mg microsomal protein. The % inhibition of the various compounds was the ACAT activity in the presence of the inhibitor divided by the activity of the control (vehicle alone) times 100%-100.

In another assay the test system is J774 cells. The assay is described as follows: Inhibition of Cholesterol Esterification in Mammalian Cells (macrophage-like cell line J774). The following applies: Mus musculus; murine macrophage-like cell line J774, +LDL (200 μg/ml), 14C-oleic acid incorporation into cholesteryl ester. The assay is classed as cell-based. The method, then:
The esterification of cholesterol was determined in the murine macrophage-like cell line J774. J774 cells were placed in 60 mm dishes at a density of 200,000 cells per dish in 3.0 ml of Dulbecco's minimal essential medium (DMEM) containing 10% Fetal bovine serum. Cells were incubated at 37° C. in an atmosphere of 5% CO2 and 93% humidity. After 24 hr, the cells were washed with 2 ml of Hanks buffered saline and the media changed to 1.5 ml of DMEM containing 1% Cabosil® treated serum (CTS) to up-regulate LDL receptors. At 56 hr, fresh media that contained 1% CTS was added to the cells; in all but control dishes the media contained 200 μg LDL/ml to increase the intracellular concentration of cholesterol and promote esterification. At 72 hr, various inhibitors were added to the cells in DMSO (10 μl/ml maximum). At 74 hr, the cells were pulsed with 0.1 mM ^14 C-oleic acid (20,000 dpm/nmol) complexed with bovine serum albumin (BSA) to follow cholesteryl ester formation. The experiment was terminated at 76 hrs by washing the monolayers 3 times with 3 ml of Tris-buffered saline at 4° C. The lipids were extracted by incubating the monolayers with 1.5 ml of hexane: isopropanol (3:2, v/v) for 30 mins under gentle agitation. During this period, 20,000 dpm ^3 H-cholesteryl linoleate and 10 μg of cholesteryl oleate were added as an internal standard and carrier respectively. The organic solvent was removed and the cells were washed with an additional 1.0 ml of hexane: isopropanol which was combined with the original extract. The cells were allowed to dry overnight, digested with 1.5 ml of 0.2 N sodium hydroxide for 1 hr, and an aliquot of the solubilized protein used for protein determination using the Lowry method. The organic extract was taken to dryness, the residue resuspended in 100 μl of chloroform and the lipids separated on silica gel impregnated glass fiber plates using a hexane: diethyl ether: acetic acid (170:30:1, v/v/v) solvent system. The cholesteryl ester spot was visualized with iodine, cut out, and transferred to scintillation vials to determine the amount of radioactivity. The conversion of oleic acid to cholesteryl ester in the control averaged 0.54 nmol/hr/mg protein and was increased upon the addition of LDL to about 2.37 nmol/hr/mg protein. Inhibition of esterification by various compound was determined by dividing the specific activity (+LDL) in the presence of the inhibitor by the specific activity (+LDL) of the vehicle alone times 100% -100.

pIC50: −log10 of the molar value.

In the case of `CCOC(=O)CCCCCCCCCCSc1nc(-c2ccccc2)c(-c2ccccc2)[nH]1` [Example 2, 11-(4,5-Diphenyl-1H-imidazol-2-ylthio)undecanoic acid ethyl ester], the pIC50 in assay [1] is 6.00; with J774 cells it was 4.77.
The like results for `O=C(O)CCCCCCCOc1nc(-c2ccccc2)c(-c2ccccc2)n1-c1ccccc1` [Octimibate, reference compound] were, in that order, 4.64 and 4.11.
Regarding `O=C(O)CCCCCCCCCCSc1nc(-c2ccccc2)c(-c2ccccc2)[nH]1` [Example 58, 11-(4,5-Diphenyl-1H-imidazol-2-ylthio)undecanoic acid], the pIC50 in assay [1] is 6.00; in the assay on J774 cells, 4.77.
The like results for `CCOC(=O)CCCCCCCSc1nc(-c2ccccc2)c(-c2ccccc2)[nH]1` [Example 1, 8-(4,5-Diphenyl-1H-imidazol-2-ylthio)octanoic acid ethyl ester] were, in that order, 5.70 and 4.72.
As to `O=C(O)CCCCCCCSc1nc(-c2ccccc2)c(-c2ccccc2)[nH]1` [Example 57, 8-(4,5-Diphenyl-1H-imidazol-2-ylthio)octanoic acid], the pIC50 in assay [1] is 5.70; in the assay on J774 cells, 4.10.

By pIC50 is commonly meant the negative decadic logarithm of the IC50, by convention in mol/L.

The record behind these values is patent publication US4900744A, “Antihypercholesterolemic 4,5-diaryl-2-substituted thioimidazoles” (E. I. Du Pont de Nemours and Company, priority 1988, dated 1990).
